In patent US10526319B2, “Halogenated quinazolin-THF-amines as PDE1 inhibitors” (H. Lundbeck A/S, priority 2014, dated 2020):

Legend:
Type in all cases: biochemical
Settings in all cases: 15 nM tritium labelled cAMP, 1 h at room temperature
PDE1C = PDE1C (Homo sapiens, UniProt Q14123); assay: PDE1 inhibition assay (SPA, tritium labelled cAMP), PDE1C
Description: (§1) PDE1A, PDE1B and PDE1C assays were performed as follows: the assays was performed in 60 μL samples containing a fixed amount of the PDE1 enzym1 (sufficient to convert 20-25% of the cyclic nucleotide substrate), a buffer (50 mM HEPES pH 7.6; 10 mM MgCl2; 0.02% Tween20), 0.1 mg/ml BSA, 15 nM tritium labelled cAMP and varying amounts of inhibitors. Reactions were initiated by addition of the cyclic nucleotide substrate, and reactions were allowed to proceed for 1 h at room temperature before being terminated through mixing with 20 μL (0.2 mg) yttrium silicate SPA beads (PerkinElmer). The beads were allowed to settle for 1 h in the dark before the plates were counted in a Wallac 1450 Microbeta counter. The measured signals were converted to activity relative to an uninhibited control (100%) and IC50 values were calculated using XlFit (model 205, IDBS).

PDE1B = PDE1B (Homo sapiens, UniProt Q01064); assay: PDE1 inhibition assay (SPA, tritium labelled cAMP), PDE1B
Description: as §1

PDE1A = PDE1A (Homo sapiens, UniProt P54750); assay: PDE1 inhibition assay (SPA, tritium labelled cAMP), PDE1A
Description: as §1

PDE1C, sequence (Q14123 whole entry): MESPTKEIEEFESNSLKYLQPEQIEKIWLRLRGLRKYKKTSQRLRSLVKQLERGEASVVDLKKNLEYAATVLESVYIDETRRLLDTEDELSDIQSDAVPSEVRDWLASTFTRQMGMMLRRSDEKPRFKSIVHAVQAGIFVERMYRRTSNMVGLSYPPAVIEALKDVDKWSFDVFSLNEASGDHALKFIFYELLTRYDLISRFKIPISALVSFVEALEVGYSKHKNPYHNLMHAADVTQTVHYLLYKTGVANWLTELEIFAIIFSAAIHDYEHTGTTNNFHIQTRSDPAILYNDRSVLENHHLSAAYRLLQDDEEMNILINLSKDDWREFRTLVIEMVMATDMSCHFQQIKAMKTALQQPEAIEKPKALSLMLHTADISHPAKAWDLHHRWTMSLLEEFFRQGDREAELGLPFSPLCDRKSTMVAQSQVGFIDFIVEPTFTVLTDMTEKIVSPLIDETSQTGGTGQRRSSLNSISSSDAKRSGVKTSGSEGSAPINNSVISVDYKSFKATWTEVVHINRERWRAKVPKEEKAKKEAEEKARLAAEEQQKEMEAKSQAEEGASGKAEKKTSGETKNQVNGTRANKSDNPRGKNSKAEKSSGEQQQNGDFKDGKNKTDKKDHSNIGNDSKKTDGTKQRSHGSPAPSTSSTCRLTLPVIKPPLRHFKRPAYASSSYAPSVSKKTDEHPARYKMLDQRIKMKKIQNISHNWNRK
PDE1B, sequence (Q01064 whole entry): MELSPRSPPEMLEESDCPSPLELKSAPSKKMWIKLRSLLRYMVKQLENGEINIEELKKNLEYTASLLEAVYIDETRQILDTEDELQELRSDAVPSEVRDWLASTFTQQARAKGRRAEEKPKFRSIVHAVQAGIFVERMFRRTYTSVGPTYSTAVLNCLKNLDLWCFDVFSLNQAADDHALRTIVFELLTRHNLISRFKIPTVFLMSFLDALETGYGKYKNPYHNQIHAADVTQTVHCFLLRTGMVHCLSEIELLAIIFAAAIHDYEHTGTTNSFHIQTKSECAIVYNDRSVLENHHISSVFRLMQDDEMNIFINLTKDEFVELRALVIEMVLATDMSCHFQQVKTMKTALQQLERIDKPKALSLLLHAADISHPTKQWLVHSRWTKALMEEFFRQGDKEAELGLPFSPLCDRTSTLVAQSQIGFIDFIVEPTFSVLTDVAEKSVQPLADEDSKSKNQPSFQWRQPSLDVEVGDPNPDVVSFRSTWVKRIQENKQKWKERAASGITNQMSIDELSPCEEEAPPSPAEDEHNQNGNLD
PDE1A, sequence (P54750 whole entry): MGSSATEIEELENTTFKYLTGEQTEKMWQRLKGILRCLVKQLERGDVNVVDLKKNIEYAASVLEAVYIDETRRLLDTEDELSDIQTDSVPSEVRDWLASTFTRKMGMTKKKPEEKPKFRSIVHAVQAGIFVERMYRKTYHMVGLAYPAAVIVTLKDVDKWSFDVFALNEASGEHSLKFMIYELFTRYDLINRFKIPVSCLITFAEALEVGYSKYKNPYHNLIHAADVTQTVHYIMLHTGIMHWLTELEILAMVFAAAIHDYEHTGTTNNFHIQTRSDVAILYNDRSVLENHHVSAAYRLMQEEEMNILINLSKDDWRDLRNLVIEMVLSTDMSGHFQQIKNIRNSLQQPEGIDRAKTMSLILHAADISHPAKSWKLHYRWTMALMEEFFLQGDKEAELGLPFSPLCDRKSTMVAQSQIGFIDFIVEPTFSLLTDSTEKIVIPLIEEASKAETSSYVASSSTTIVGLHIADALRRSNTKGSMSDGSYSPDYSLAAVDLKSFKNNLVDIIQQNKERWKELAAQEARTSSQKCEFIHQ

IC50 (PDE1C) [nM] | IC50 (PDE1B) [nM] | IC50 (PDE1A) [nM] | Structure (SMILES)
1800 | 650 | 1900 | COc1ccc2c(NC3CCOC3C)ncnc2c1F (single isomer, unassigned) [3 Stereoisomer 1]
260 | 87 | 420 | COc1ccc2c(NC3CCOC3C)ncnc2c1F (single isomer, unassigned) [3 Stereoisomer 2]
310 | 70 | 530 | COc1ccc2c(NC3CCOC3C)ncnc2c1F (single isomer, unassigned) [3 Stereoisomer 3]
410 | 120 | 600 | COc1ccc2c(NC3CCOC3C)ncnc2c1F (single isomer, unassigned) [3 Stereoisomer 4]
200 | 310 | 790 | COc1ccc2c(NC3CCOC3)ncnc2c1Cl (single isomer, unassigned) [4 Stereoisomer 1]
33 | 45 | 190 | COc1ccc2c(NC3CCOC3)ncnc2c1Cl (single isomer, unassigned) [4 Stereoisomer 2]
27 | 49 | 300 | COc1ccc2c(NC3CCOC3C)ncnc2c1Cl (single isomer, unassigned) [5 stereoisomer 1]
35 | 37 | 230 | COc1ccc2c(NC3CCOC3C)ncnc2c1Cl (single isomer, unassigned) [5 stereoisomer 2]
11 | 15 | 150 | COc1ccc2c(N(C)C3CCOC3)ncnc2c1Cl (single isomer, unassigned) [6 stereoisomer 2]
11 | 23 | 200 | COc1ccc2c(NC3(C)CCOC3)ncnc2c1Cl (single isomer, unassigned) [7 stereoisomer 1]
48 | 75 | 490 | COc1ccc2c(NC3(C)CCOC3)ncnc2c1Cl (single isomer, unassigned) [7 stereoisomer 2]
2500 | 2200 | 4030 | COc1ccc2c(N3CC[C@@H]4OCCC43)ncnc2c1F (single isomer, unassigned) [8 Stereoisomer 2]
23 | 40 | 156 | COc1ccc2c(N3CC[C@@H]4OCCC43)ncnc2c1Cl (single isomer, unassigned) [9 Stereoisomer 1]
210 | – | – | COc1ccc2c(N3CC[C@@H]4OCCC43)ncnc2c1Br (single isomer, unassigned) [10 Stereoisomer 2]
33 | 65 | 292 | COc1ccc2c(N(C)C3(C)CCOC3)ncnc2c1Cl (single isomer, unassigned) [11 Stereoisomer 1]
130 | 200 | 853 | COc1ccc2c(NC3(C)CCOC3C)ncnc2c1Cl (single isomer, unassigned) [12 Stereoisomer 1]
38 | 65 | 286 | COc1ccc2c(NC3(C)CCOC3C)ncnc2c1Cl (single isomer, unassigned) [12 Stereoisomer 2]
14 | 21 | 145 | COc1ccc2c(NC3(C)CCOC3C)ncnc2c1Cl (single isomer, unassigned) [12 Stereoisomer 3]
13 | 26 | 300 | COc1ccc2c(N(C)C3(C)CCOC3C)ncnc2c1Cl (single isomer, unassigned) [13 Stereoisomer 4]
200 | 490 | 1530 | COc1ccc2c(N(C)C3CCOC3C)ncnc2c1Cl (single isomer, unassigned) [14 Stereoisomer 3]
320 | 110 | 688 | COc1ccc2c(N(C)C3(C)CCOC3)ncnc2c1F (single isomer, unassigned) [15 Stereoisomer 1]
81 | 47 | 333 | COc1ccc2c(N(C)C3(C)CCOC3)ncnc2c1F (single isomer, unassigned) [15 Stereoisomer 2]
98 | 27 | 184 | COc1ccc2c(NC3(C)CCOC3C)ncnc2c1F (single isomer, unassigned) [17 Stereoisomer 1]
22 | 5 | 73 | COc1ccc2c(NC3(C)CCOC3C)ncnc2c1F (single isomer, unassigned) [17 Stereoisomer 2]
390 | 100 | 451 | COc1ccc2c(NC3(C)CCOC3C)ncnc2c1F (single isomer, unassigned) [17 Stereoisomer 3]
440 | 140 | 408 | COc1ccc2c(NC3(C)CCOC3C)ncnc2c1F (single isomer, unassigned) [17 Stereoisomer 4]
1100 | 510 | 1730 | COc1ccc2c(N(C)C3CCOC3C)ncnc2c1F (single isomer, unassigned) [18 Stereoisomer 1]
1400 | 550 | 2470 | COc1ccc2c(N(C)C3CCOC3C)ncnc2c1F (single isomer, unassigned) [18 Stereoisomer 2]
87 | 47 | 200 | COc1ccc2c(N(C)C3CCOC3C)ncnc2c1F (single isomer, unassigned) [18 Stereoisomer 3]

The remaining lines, values behind:

Structure (SMILES) | IC50 (PDE1C) [nM] | IC50 (PDE1B) [nM] | IC50 (PDE1A) [nM]
COc1ccc2c(NC3(C)CCOC3)ncnc2c1F (single isomer, unassigned) [1 Stereoisomer 1] | 28 | 9.9 | 50
COc1ccc2c(NC3(C)CCOC3)ncnc2c1F (single isomer, unassigned) [1 Stereoisomer 2] | 260 | 65 | 250
COc1ccc2c(N(C)C3CCOC3)ncnc2c1F (single isomer, unassigned) [2 Stereoisomer 1] | 1300 | 300 | 1100
COc1ccc2c(N(C)C3CCOC3)ncnc2c1F (single isomer, unassigned) [2 Stereoisomer 2] | 76 | 18 | 100
COc1ccc2c(NC3CCOC3C)ncnc2c1Cl (single isomer, unassigned) [5 stereoisomer 3] | 250 | 460 | 1500
COc1ccc2c(NC3CCOC3C)ncnc2c1Cl (single isomer, unassigned) [5 stereoisomer 4] | 36 | 58 | 450
COc1ccc2c(N(C)C3CCOC3)ncnc2c1Cl (single isomer, unassigned) [6 stereoisomer 1] | 140 | 330 | 1800
COc1ccc2c(N3CC[C@@H]4OCCC43)ncnc2c1F (single isomer, unassigned) [8 Stereoisomer 1] | 60 | 21 | 72
COc1ccc2c(N3CC[C@@H]4OCCC43)ncnc2c1Cl (single isomer, unassigned) [9 Stereoisomer 2] | 550 | 1200 | 2260
COc1ccc2c(N3CC[C@@H]4OCCC43)ncnc2c1Br (single isomer, unassigned) [10 Stereoisomer 1] | 11 | 49 | 147
COc1ccc2c(N(C)C3(C)CCOC3)ncnc2c1Cl (single isomer, unassigned) [11 Stereoisomer 2] | 15 | 31 | 152
COc1ccc2c(NC3(C)CCOC3C)ncnc2c1Cl (single isomer, unassigned) [12 Stereoisomer 4] | 4 | 7 | 76
COc1ccc2c(N(C)C3(C)CCOC3C)ncnc2c1Cl (single isomer, unassigned) [13 Stereoisomer 1] | 200 | 410 | 2550
COc1ccc2c(N(C)C3(C)CCOC3C)ncnc2c1Cl (single isomer, unassigned) [13 Stereoisomer 2] | 17 | 34 | 207
COc1ccc2c(N(C)C3(C)CCOC3C)ncnc2c1Cl (single isomer, unassigned) [13 Stereoisomer 3] | 5 | 7 | 85
COc1ccc2c(N(C)C3CCOC3C)ncnc2c1Cl (single isomer, unassigned) [14 Stereoisomer 1] | 200 | 510 | 2640
COc1ccc2c(N(C)C3CCOC3C)ncnc2c1Cl (single isomer, unassigned) [14 Stereoisomer 2] | 10 | 18 | 170
COc1ccc2c(N(C)C3CCOC3C)ncnc2c1Cl (single isomer, unassigned) [14 Stereoisomer 4] | 14 | 30 | 285
COc1ccc2c(NC3CCOC3)ncnc2c1F (single isomer, unassigned) [16 Stereoisomer 1] | 1200 | 430 | 1180
COc1ccc2c(NC3CCOC3)ncnc2c1F (single isomer, unassigned) [16 Stereoisomer 2] | 230 | 81 | 315
